In patent US9487510B2, “Substituted heterocyclic acetamides as kappa opioid receptor (KOR) agonists” (Dr. Reddy's Laboratories Ltd., priority 2012, dated 2016):
pEC50: −log10 of the molar value.

Molecular target: human KOR receptor (Homo sapiens, UniProt P41145)
Assay: IP-One HTRF assay, potency of KOR agonists, dose-response in transiently transfected COS-7 cells
Assay type: cell-based

human KOR receptor, sequence (P41145 whole entry): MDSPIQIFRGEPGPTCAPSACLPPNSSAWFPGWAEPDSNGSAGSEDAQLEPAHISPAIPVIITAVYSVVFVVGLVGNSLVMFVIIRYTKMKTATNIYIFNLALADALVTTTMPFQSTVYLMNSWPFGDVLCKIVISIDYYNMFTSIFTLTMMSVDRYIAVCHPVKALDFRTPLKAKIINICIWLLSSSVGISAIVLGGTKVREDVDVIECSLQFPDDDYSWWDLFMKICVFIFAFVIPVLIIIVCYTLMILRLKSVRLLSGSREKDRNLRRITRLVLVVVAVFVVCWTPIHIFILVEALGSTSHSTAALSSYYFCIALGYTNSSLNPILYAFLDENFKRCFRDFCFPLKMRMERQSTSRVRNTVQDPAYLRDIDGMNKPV

Row | Structure (SMILES) | pEC50
1 | CN(C(=O)Cc1ccc2sc(=O)[nH]c2c1)[C@H](CN1CC[C@H](O)C1)c1cccc(C(N)=O)c1 [Example 19, 3-((S)-2-((S)-3-hydroxypyrrolidin-1-yl)-1-(N-methyl-2-(2-oxo-2,3-dihydrobenzo [d]thiazol-5-yl)acetamido)ethyl)benzamide] | ≥ 7.30
2 | CN(C(=O)Cc1ccc2c(c1)N(C)S(=O)(=O)C2)[C@H](CN1CC[C@H](O)C1)c1cccc(-c2nn[nH]n2)c1 [Example 21, N-((S)-1-(3-(1H-tetrazol-5-yl)phenyl)-2-((S)-3-hydroxypyrrolidin-1-yl)ethyl)-N-methyl-2-(1-methyl-2,2-dioxido-1,3-dihydrobenzo[c]isothiazol-6-yl)acetamide] | 7.00 to 7.29
3 | CN(C(=O)Cc1ccc2c(c1)NC(=O)CS2(=O)=O)[C@H](CN1CC[C@H](O)C1)c1cccc(OCC(=O)O)c1 [Example 22, 2-(3-((S)-1-(2-(1,1-dioxido-3-oxo-3,4-dihydro-2H-benzo[b][1,4]thiazin-6-yl)-N-methylacetamido)-2-((S)-3-hydroxypyrrolidin-1-yl)ethyl)phenoxy)acetic acid] | ≥ 7.30
4 | CN(C(=O)Cc1ccc2c(c1)NC(=O)C2)[C@H](CN1CC[C@H](O)C1)c1cccc(C(=O)O)c1 [Example 23, 3-((S)-2-((S)-3-hydroxypyrrolidin-1-yl)-1-(N-methyl-2-(2-oxoindolin-6-yl)acetamido)ethyl) benzoic acid] | ≥ 7.30
5 | CN(C(=O)Cc1ccc2c(c1)NC(=O)C2)[C@H](CN1CC[C@H](O)C1)c1cccc(C(N)=O)c1 [Example 24, 3-((S)-2-((S)-3-hydroxypyrrolidin-1-yl)-1-(N-methyl-2-(2-oxoindolin-6-yl)acetamido)ethyl) benzamide] | ≥ 7.30
6 | CN(C(=O)Cc1ccc2c(c1)NC(=O)C2)[C@H](CN1CC[C@H](F)C1)c1cccc(C#N)c1 [Example 25, N-((S)-1-(3-cyanophenyl)-2-((S)-3-fluoropyrrolidin-1-yl)ethyl)-N-methyl-2-(2-oxoindolin-6-yl)acetamide] | ≥ 7.30
7 | CN(C(=O)Cc1ccc2c(c1)NC(=O)C2)[C@H](CN1CC[C@H](O)C1)c1cccc(OCC(N)=O)c1 [Example 26, N-((S)-1-(3-(2-amino-2-oxoethoxy)phenyl)-2-((S)-3-hydroxypyrrolidin-1-yl)ethyl)-N-methyl-2-(2-oxoindolin-6-yl)acetamide] | ≥ 7.30
8 | CN(C(=O)Cc1ccc2c(c1)NC(=O)C2)[C@H](CN1CC[C@H](O)C1)c1cccc(OCC(=O)NS(C)(=O)=O)c1 [Example 27, N-((S)-2-((S)-3-hydroxypyrrolidin-1-yl)-1-(3-(2-(methylsulfonamido)-2-oxoethoxy)phenyl)ethyl)-N-methyl-2-(2-oxoindolin-6-yl)acetamide] | 7.00 to 7.29
9 | CN(C(=O)Cc1ccc2c(c1)NC(=O)C2)[C@H](CN1CC[C@H](F)C1)c1cccc(C(=O)O)c1 [Example 28, 3-((S)-2-((S)-3-fluoropyrrolidin-1-yl)-1-(N-methyl-2-(2-oxoindolin-6-yl)acetamido)ethyl) benzoic acid] | 6.00 to 7.00
10 | CN(C(=O)Cc1ccc2c(c1)NC(=O)C2)[C@H](CN1CC[C@H](F)C1)c1cccc(OCC(=O)O)c1 [Example 29, 2-(3-((S)-2-((S)-3-fluoropyrrolidin-1-yl)-1-(N-methyl-2-(2-oxoindolin-6-yl)acetamido)ethyl)phenoxy)acetic acid] | ≥ 7.30
11 | CN(C(=O)Cc1ccc2c(c1)NC(=O)C2)[C@H](CN1CC[C@H](F)C1)c1cccc(OCC(N)=O)c1 [Example 30, N-((S)-1-(3-(2-amino-2-oxoethoxy)phenyl)-2-((S)-3-fluoropyrrolidin-1-yl)ethyl)-N-methyl-2-(2-oxoindolin-6-yl)acetamide] | ≤ 6.00
12 | CN(C(=O)Cc1ccc2ncc(=O)[nH]c2c1)[C@H](CN1CC[C@H](O)C1)c1cccc(C(=O)O)c1 [Example 31, 3-((S)-2-((S)-3-hydroxypyrrolidin-1-yl)-1-(N-methyl-2-(3-oxo-3,4-dihydroquinoxalin-6-yl)acetamido)ethyl)benzoic acid] | ≥ 7.30
13 | CN(C(=O)Cc1ccc2c(c1)NC(=O)CS2)[C@H](CN1CC[C@H](O)C1)c1cccc(C(N)=O)c1 [Example 32, 3-((S)-2-((S)-3-hydroxypyrrolidin-1-yl)-1-(N-methyl-2-(3-oxo-3,4-dihydro-2H-benzo[b][1,4]thiazin-6-yl)acetamido)ethyl)benzamide] | ≥ 7.30
14 | CN(C(=O)Cc1ccc2ncc(=O)[nH]c2c1)[C@H](CN1CC[C@H](O)C1)c1cccc(-c2noc(C(F)(F)F)n2)c1 [Example 34, N-((S)-2-((S)-3-hydroxypyrrolidin-1-yl)-1-(3-(5-(trifluoromethyl)-1,2,4-oxadiazol-3-yl)phenyl)ethyl)-N-methyl-2-(3-oxo-3,4-dihydroquinoxalin-6-yl)acetamide] | ≥ 7.30
15 | Cc1nc(-c2cccc([C@@H](CN3CC[C@H](O)C3)N(C)C(=O)Cc3ccc4c(c3)NC(=O)C4)c2)no1 [Example 35, N-((S)-2-((S)-3-hydroxypyrrolidin-1-yl)-1-(3-(5-methyl-1,2,4-oxadiazol-3-yl)phenyl)ethyl)-N-methyl-2-(2-oxoindolin-6-yl)acetamide] | ≥ 7.30
16 | CN(C(=O)Cc1ccc2c(c1)NC(=O)C2)[C@H](CN1CC[C@H](O)C1)c1cccc(-c2nccs2)c1 [Example 36, N-((S)-2-((S)-3-hydroxypyrrolidin-1-yl)-1-(3-(thiazol-2-yl)phenyl)ethyl)-N-methyl-2-(2-oxoindolin-6-yl)acetamide] | 7.00 to 7.29
17 | CCC#Cc1cccc([C@@H](CN2CC[C@H](O)C2)N(C)C(=O)Cc2ccc3c(c2)NS(=O)(=O)C3)c1 [Example 37, N-((S)-1-(3-(but-1-yn-1-yl)phenyl)-2-((S)-3-hydroxypyrrolidin-1-yl)ethyl)-2-(2,2-dioxido-1,3-dihydrobenzo[c]isothiazol-6-yl)-N-methylacetamide] | ≥ 7.30
18 | CN(C(=O)Cc1ccc2c(c1)NC(=O)C2)[C@H](CN1CC[C@H](O)C1)c1cccc(C(=O)NCC(F)(F)F)c1 [Example 38, 3-((S)-2-((S)-3-hydroxypyrrolidin-1-yl)-1-(N-methyl-2-(2-oxoindolin-6-yl)acetamido)ethyl)-N-(2,2,2-trifluoroethyl)benzamide] | ≥ 7.30
19 | CCN(CC)C(=O)c1cccc([C@@H](CN2CC[C@H](O)C2)N(C)C(=O)Cc2ccc3c(c2)NC(=O)C3)c1 [Example 39, N,N-diethyl-3-((S)-2-((S)-3-hydroxypyrrolidin-1-yl)-1-(N-methyl-2-(2-oxoindolin-6-yl)acetamido)ethyl)benzamide] | ≥ 7.30
20 | CN(C)C(=O)c1cccc([C@@H](CN2CC[C@H](O)C2)N(C)C(=O)Cc2ccc3sc(=O)[nH]c3c2)c1 [Example 40, 3-((S)-2-((S)-3-hydroxypyrrolidin-1-yl)-1-(N-methyl-2-(2-oxo-2,3-dihydrobenzo[d]thiazol-5-yl)acetamido)ethyl)-N,N-dimethylbenzamide-2,2,2-trifluoroacetate] | ≥ 7.30
21 | CCN(CC)C(=O)COc1cccc([C@@H](CN2CC[C@H](O)C2)N(C)C(=O)Cc2ccc3c(c2)NC(=O)C3)c1 [Example 41, N-((S)-1-(3-(2-(diethylamino)-2-oxoethoxy)phenyl)-2-((S)-3-hydroxypyrrolidin-1-yl)ethyl)-N-methyl-2-(2-oxoindolin-6-yl)acetamide] | ≥ 7.30
22 | CCN(CC)C(=O)COc1cccc([C@@H](CN2CC[C@H](O)C2)N(C)C(=O)Cc2ccc3sc(=O)[nH]c3c2)c1 [Example 42, N-((S)-1-(3-(2-(diethylamino)-2-oxoethoxy)phenyl)-2-((S)-3-hydroxypyrrolidin-1-yl)ethyl)-N-methyl-2-(2-oxo-2,3-dihydrobenzo[d]thiazol-5-yl)acetamide] | ≥ 7.30
23 | CN(C(=O)Cc1ccc2c(c1)NC(=O)C2)[C@H](CN1CC[C@H](O)C1)c1cc(F)cc(-c2nccs2)c1 [Example 43, N-((S)-1-(3-fluoro-5-(thiazol-2-yl)phenyl)-2-((S)-3-hydroxypyrrolidin-1-yl)ethyl)-N-methyl-2-(2-oxoindolin-6-yl)acetamide] | ≥ 7.30
24 | CN(C(=O)Cc1ccc2c(c1)NC(=O)C2)[C@H](CN1CC[C@H](O)C1)c1cccc(-c2nnn(C)n2)c1 [Example 44, N-((S)-2-((S)-3-hydroxypyrrolidin-1-yl)-1-(3-(2-methyl-2H-tetrazol-5-yl)phenyl)ethyl)-N-methyl-2-(2-oxoindolin-6-yl)acetamide] | 7.00 to 7.29
25 | CC(C)(C(=O)N[C@H](CN1CC[C@H](O)C1)c1ccccc1)c1ccc2oc(=O)[nH]c2c1 [Example 55, N-((S)-2-((S)-3-hydroxypyrrolidin-1-yl)-1-phenylethyl)-2-methyl-2-(2-oxo-2,3-dihydrobenzo[d]oxazol-5-yl)propanamide] | ≥ 7.30
26 | O=C(Cc1ccc2oc(=O)[nH]c2c1)NC(CN1CCCC1)c1cnn(Cc2ccccc2)c1 (stereo not drawn) [Example 62, N-(1-(1-benzyl-1H-pyrazol-4-yl)-2-(pyrrolidin-1-yl)ethyl)-2-(2-oxo-2,3-dihydrobenzo[d]oxazol-5-yl)acetamide] | ≥ 7.30
27 | CN(C(=O)Cc1ccc2oc(=O)n(Cc3ccccc3)c2c1)[C@H](CN1CCCC1)c1cccc(OCc2ccccc2)c1 [Example 64, (S)-2-(3-benzyl-2-oxo-2,3-dihydrobenzo[d]oxazol-5-yl)-N-(1-(3-(benzyloxy)phenyl)-2-(pyrrolidin-1-yl)ethyl)-N-methylacetamide] | ≥ 7.30
28 | CN(C(=O)Cc1ccc2oc(=O)n(Cc3cccc(C#N)c3)c2c1)[C@H](CN1CC[C@H](O)C1)c1ccccc1 [Example 66, 2-(3-(3-cyanobenzyl)-2-oxo-2,3-dihydrobenzo[d]oxazol-5-yl)-N-((S)-2-((S)-3-hydroxypyrrolidin-1-yl)-1-phenylethyl)-N-methylacetamide] | ≥ 7.30
29 | CN(C(=O)Cc1ccc2oc(=O)n(Cc3ccc(C#N)cc3)c2c1)[C@H](CN1CC[C@H](O)C1)c1ccccc1 [Example 75, 2-(3-(4-cyanobenzyl)-2-oxo-2,3-dihydrobenzo[d]oxazol-5-yl)-N-((S)-2-((S)-3-hydroxypyrrolidin-1-yl)-1-phenylethyl)-N-methylacetamide] | ≥ 7.30
30 | CN(C(=O)Cc1ccc2c(c1)NS(=O)(=O)C2)[C@H](CN1CC[C@H](O)C1)c1cccc(-c2nn[nH]n2)c1 [Example 79, N-((S)-1-(3-(1H-tetrazol-5-yl)phenyl)-2-((S)-3-hydroxypyrrolidin-1-yl)ethyl)-2-(2,2-dioxido-1,3-dihydrobenzo[c]isothiazol-6-yl)-N-methylacetamide] | ≥ 7.30
